Paper PMC6642608, “Putative trehalose biosynthesis proteins function as differential floridoside-6-phosphate synthases to participate in the abiotic stress response in the red alga Pyropia haitanensis” (BMC Plant Biology, 2019)

Key:
Assay in all cases: HPLC-MS of products after alkaline phosphatase
Type in all cases: biochemical
Settings in all cases: 100 mM UDP-galactose, 10 mM MgSO4, pH 8.0 protein buffer, 30 °C, 16 h
[1] = biological target: T1, PhTPS4 (Pyropia haitanensis, UniProt U3GP00)
T1 construct: E. coli BL21, pET-28a or pET-28a-sumo, His tag, sumo-His tag cut before assay; full-length ORF 1008 aa with N-terminal CBM20
T1 sequence (U3GP00 entry or part of it): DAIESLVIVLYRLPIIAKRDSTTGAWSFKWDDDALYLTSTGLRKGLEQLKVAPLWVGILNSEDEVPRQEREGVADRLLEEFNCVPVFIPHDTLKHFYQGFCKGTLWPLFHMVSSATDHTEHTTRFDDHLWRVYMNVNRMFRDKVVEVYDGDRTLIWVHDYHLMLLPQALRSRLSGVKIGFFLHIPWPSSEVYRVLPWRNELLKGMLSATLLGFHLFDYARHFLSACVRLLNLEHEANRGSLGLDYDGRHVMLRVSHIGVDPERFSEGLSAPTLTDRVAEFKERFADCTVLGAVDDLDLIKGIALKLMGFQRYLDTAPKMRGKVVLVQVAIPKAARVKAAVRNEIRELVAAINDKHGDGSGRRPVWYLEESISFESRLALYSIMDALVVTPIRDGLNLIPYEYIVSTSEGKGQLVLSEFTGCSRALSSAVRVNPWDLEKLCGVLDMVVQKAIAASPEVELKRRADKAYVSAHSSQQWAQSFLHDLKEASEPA

[2] = biological target: T2, PhTPS1 (Pyropia haitanensis, UniProt T1UQ24)
T2 construct: E. coli BL21, pET-28a or pET-28a-sumo, His tag, sumo-His tag cut before assay; full-length ORF 1154 aa
T2 sequence (T1UQ24 entry or part of it): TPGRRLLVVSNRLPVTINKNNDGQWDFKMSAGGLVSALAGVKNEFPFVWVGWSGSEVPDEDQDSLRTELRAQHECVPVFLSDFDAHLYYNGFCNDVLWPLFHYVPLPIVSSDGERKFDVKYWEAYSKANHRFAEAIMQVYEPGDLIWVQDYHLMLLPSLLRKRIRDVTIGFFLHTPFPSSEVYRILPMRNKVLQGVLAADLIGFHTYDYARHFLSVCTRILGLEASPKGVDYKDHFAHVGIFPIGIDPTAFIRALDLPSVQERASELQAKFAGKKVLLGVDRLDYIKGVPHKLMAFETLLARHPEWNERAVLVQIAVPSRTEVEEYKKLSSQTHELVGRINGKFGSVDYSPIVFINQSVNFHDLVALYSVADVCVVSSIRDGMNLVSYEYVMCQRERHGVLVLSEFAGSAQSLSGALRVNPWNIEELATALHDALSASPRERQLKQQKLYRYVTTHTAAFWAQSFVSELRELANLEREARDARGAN

[3] = biological target: T3, PhTPS3 (Pyropia haitanensis, UniProt A0A0A7PA46)
T3 construct: E. coli BL21, pET-28a or pET-28a-sumo, His tag, sumo-His tag cut before assay; full-length ORF 1108 aa
T3 sequence (A0A0A7PA46 entry or part of it): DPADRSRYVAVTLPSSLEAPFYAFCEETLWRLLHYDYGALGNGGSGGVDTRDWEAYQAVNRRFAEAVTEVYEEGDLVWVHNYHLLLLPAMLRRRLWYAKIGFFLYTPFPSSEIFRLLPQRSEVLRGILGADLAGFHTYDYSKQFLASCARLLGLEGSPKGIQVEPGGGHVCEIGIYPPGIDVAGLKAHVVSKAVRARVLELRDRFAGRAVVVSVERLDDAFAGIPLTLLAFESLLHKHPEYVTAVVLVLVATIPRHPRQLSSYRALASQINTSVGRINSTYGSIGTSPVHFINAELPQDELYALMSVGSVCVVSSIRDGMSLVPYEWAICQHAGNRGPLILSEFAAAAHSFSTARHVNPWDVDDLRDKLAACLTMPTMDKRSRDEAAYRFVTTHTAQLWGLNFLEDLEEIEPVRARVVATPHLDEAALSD

SMILES: O=P(O)(O)OC[C@H](O)CO [G3P]
- HPLC-MS of products after alkaline phosphatase [1]: UDP-Gal and G3P were allowed to react with them
- HPLC-MS of products after alkaline phosphatase [2]: UDP-Gal and G3P were allowed to react with them
- HPLC-MS of products after alkaline phosphatase [3]: UDP-Gal and G3P were allowed to react with them
